Patent publication US12497376B2, “Compound [2-(dimethylamino)-2-phenylbutyl]-3,4,5-trimethoxybenzoate 4-methyl-2H-chromen-2-on-7-yl sulphate and use thereof” (LTD “VALENTA—INTELLEKT”, priority 2020, dated 2025)

Test system: male mice of the C57 BL/6 line
Experiment: von Frey filament test (mechanical allodynia) in the model of visceral pain induced by TNBS colitis
Assay type: in vivo
Settings: for Mechanical allodynia intensity, g (mean ± standard error of the mean): oral once daily from day 3 after TNBS, von Frey test on Day 28, placebo 2.0 ± 0.5
Protocol: In the experiments, 13-week old male mice of the C57 BL/6 line were used. Sixty (60) animals were randomly distributed into four (4) groups of equal number (N=15) characterized by the dosage of the administered compound.
The study was conducted for three different doses of the compound of Formula I. A group of mice receiving only the carrier (starch solution) served as the control group (placebo group).
Colitis was induced by introducing 0.1 mL of TNBS (trinitrobenzene sulfonate) (130 μg/mL in 30% EtOH) into the large intestine through a polyethylene catheter introduced by 3 cm into the anus of mice anesthetized with isoflurane. Then, the mice were arranged individually, and changes in the body weight, appearance and behavior were observed daily. A histological study of the mucosa structure, cell infiltrate, intestinal crypt abscesses and goblet cells confirmed significant damage caused by the TNBS introduction on Day 3 and, in a significant degree, on Day 7 [6].
The preparations were introduced orally in three days after the TNBS introduction and then once daily for the whole study period.
To assess pain behavior, the von Frey test with filaments (appearance of mechanical allodynia) on Day 28 after the TNBS introduction.
The animals were put into an acrylic chamber (15×15×15 cm) raised above the ground with a wire mesh on the bottom. Before starting the tests, the animals were left in the chamber for 5-10 minutes for adaptation. Then, the abdominal cavity of the animal was stimulated with von Frey calibrated filaments (or fibers) (BIOSEB, USA). The filaments were a set of 10 standard plastic fibers of increasing diameters. The fiber rigidity, which is expressed as a minimal force required to flex a fiber, was increased in such calibration logarithmically, with absolute values from 0.6 g to 26 g. Sensitivity threshold of each mouse was determined in three repeats (6 touches in total with 10-second interval for each filament; the interval between successive touches with different filaments was 2 minutes). The abdominal surface was poked with a force required to flex the fiber, and the fiber was held in that position for 6-8 seconds. The positive response was recorded, if the animal sharply winced during touching. A sensitivity threshold was determined by a minimal pressure causing the wincing reflex reaction (4 times of 6 touches).
An average score received in a corresponding test and a standard error of the mean for each value were calculated for each study group (n=15).

[2-(dimethylamino)-2-phenylbutyl]-3,4,5-trimethoxybenzoate 4-methyl-2H-chromen-2-on-7-yl sulphate [Compound of Formula I]
Mechanical allodynia intensity, g (mean ± standard error of the mean) (dose 10 mg/day (recalculated for a human), group 2, n=15): 10.0 ± 0.5 g | Mechanical allodynia intensity, g (mean ± standard error of the mean) (dose 300 mg/day (recalculated for a human), group 3, n=15): 21.4 ± 0.9 g | Mechanical allodynia intensity, g (mean ± standard error of the mean) (dose 1,800 mg/day (recalculated for a human), group 4, n=15): 23.1 ± 1.0 g | Indices of mechanical allodynia versus placebo (groups receiving the compound (10, 300, 1,800 mg/day), p < 0.05 versus placebo): significantly lower
